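Test compounds were applied to cells in 96-well plates for 48 hours at 5 doses. GI50 is the concentration that inhibits growth by half. TGI: total growth inhibition.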 Where only a bound is given, the exact number is not on record here.

Test systems include DU-145 prostate; HOP-62 NSCLC; HOP-92 NSCLC; K-562 leukemia; KM12 colon; NCI/ADR-RES ovarian; OVCAR-3 ovarian; OVCAR-8 ovarian; SK-MEL-5 melanoma; SR leukemia.
Holding throughout (assay): NCI tumour cell line growth inhibition, 48 h

As to `COc1ccc(Sc2[nH]c(C=O)c3ccccc23)cc1`, the GI50 is 6.25 µM in the test on DU-145 prostate; 15.5 µM with HOP-62 NSCLC; 5.52 µM in the test with HOP-92 NSCLC; 2.14 µM in the test on K-562 leukemia; 3.62 µM in the test on KM12 colon; 11.6 µM with NCI/ADR-RES ovarian. Further, the GI50 with OVCAR-3 ovarian is 11.9 µM; in the test on OVCAR-8 ovarian, 14.1 µM; in the test with SK-MEL-5 melanoma, 12.9 µM. For the same compound, the TGI with DU-145 prostate is 21.6 µM; in the test with HOP-62 NSCLC it was 29.7 µM; in the test on HOP-92 NSCLC, 21 µM; with K-562 leukemia it was 14.2 µM; in the test with KM12 colon it was 13.7 µM; with NCI/ADR-RES ovarian it was 47.5 µM. Also, the figures for the TGI in the test with OVCAR-3 ovarian, in the test with OVCAR-8 ovarian and with SK-MEL-5 melanoma were 24.2 µM, 32 µM and 25.5 µM, respectively.
In the case of `COc1ccc2cc3c4cc(OC)c(OC)cc4ccn3c2c1`, the TGI with HOP-62 NSCLC, with HOP-92 NSCLC, with K-562 leukemia, in the test with KM12 colon, in the test on OVCAR-8 ovarian and in the test with SK-MEL-5 melanoma was > 100 µM each time. The TGI with SR leukemia was > 100 µM.
Take `COc1ccc(C)c2sc(N(Cc3cccnc3)C(=O)c3ccc(C#N)cc3)nc12`: the GI50 was 51.9 µM in the test on DU-145 prostate; > 100 µM in the test on HOP-62 NSCLC; 20.3 µM in the test with HOP-92 NSCLC; 37.9 µM in the test on K-562 leukemia; 34.6 µM with KM12 colon; 37.7 µM with NCI/ADR-RES ovarian. Besides, the GI50 in the test with OVCAR-3 ovarian was 40.1 µM; in the test with OVCAR-8 ovarian it was 48.1 µM; in the test on SK-MEL-5 melanoma, 24.4 µM. Further, the TGI with DU-145 prostate, in the test with HOP-62 NSCLC, in the test with HOP-92 NSCLC, in the test with K-562 leukemia, in the test with KM12 colon and in the test on NCI/ADR-RES ovarian was > 100 µM each time. In addition, the TGI in the test with OVCAR-3 ovarian was > 100 µM; in the test with OVCAR-8 ovarian, > 100 µM; in the test on SK-MEL-5 melanoma, 93.8 µM.
As to `O=C(O)c1cnc2c(ccc3[nH]cccc32)c1=O`, the TGI in the test with HOP-62 NSCLC, with K-562 leukemia, with KM12 colon, in the test with OVCAR-3 ovarian, with OVCAR-8 ovarian and in the test on SK-MEL-5 melanoma was > 100 µM each time. Further, in the test with SR leukemia, the TGI is > 100 µM.
On to `O=C1CCC2(c3ccc(Cl)cc3)Nc3ccccc3N12` (centres undefined), for which the TGI in the test with HOP-62 NSCLC was > 100 µM; with HOP-92 NSCLC, 90.6 µM; with K-562 leukemia, > 100 µM; in the test on KM12 colon it was > 100 µM; in the test on OVCAR-8 ovarian, > 100 µM; with SR leukemia, > 100 µM.
With `COc1ccc(C(=O)/C=C/c2cc(-c3ccc(OC)c(OC)c3)n[nH]2)cc1OC`, the GI50 was 1.64 µM in the test with DU-145 prostate; 1.73 µM in the test with HOP-62 NSCLC; 1.97 µM in the test on HOP-92 NSCLC; 0.619 µM in the test with K-562 leukemia; 0.625 µM in the test with KM12 colon; 3.43 µM in the test on NCI/ADR-RES ovarian. For the same compound, the GI50 in the test with OVCAR-3 ovarian is 1.96 µM; with OVCAR-8 ovarian, 2.63 µM; in the test with SK-MEL-5 melanoma, 1.58 µM. In addition, the TGI was 4.8 µM in the test on DU-145 prostate; 5.6 µM in the test with HOP-62 NSCLC; 8.12 µM with HOP-92 NSCLC; > 100 µM in the test with K-562 leukemia; 2.08 µM with KM12 colon; 33.1 µM with NCI/ADR-RES ovarian. Further, the TGI came out at 4.72 µM with OVCAR-3 ovarian, 22.4 µM in the test on OVCAR-8 ovarian and 2.96 µM in the test on SK-MEL-5 melanoma.
For the compound `O=Cc1ccc(-c2ccc(-c3nc4ccccc4s3)cc2)o1`, the GI50 in the test with DU-145 prostate is 35 µM; in the test on HOP-62 NSCLC, > 100 µM; in the test with HOP-92 NSCLC it was 94.3 µM; in the test with K-562 leukemia, > 100 µM; with KM12 colon, 46.5 µM; in the test on NCI/ADR-RES ovarian it was 97.7 µM. Besides, the values for the GI50 in the test on OVCAR-3 ovarian, in the test on OVCAR-8 ovarian and in the test on SK-MEL-5 melanoma were 16 µM, 70.7 µM and 96.4 µM, respectively. Further, the TGI in the test on DU-145 prostate, in the test with HOP-62 NSCLC, in the test with HOP-92 NSCLC, with K-562 leukemia, in the test with KM12 colon and in the test on NCI/ADR-RES ovarian was > 100 µM in each case. Moreover, the values for the TGI in the test on OVCAR-3 ovarian, with OVCAR-8 ovarian and in the test on SK-MEL-5 melanoma were 74.1 µM, > 100 µM and > 100 µM, respectively.
As to `COc1ccc2c(n1)Sc1nc3ccccc3nc1N2`, the TGI with DU-145 prostate is > 100 µM; with HOP-62 NSCLC it was 79.5 µM; in the test with HOP-92 NSCLC it was > 100 µM; with K-562 leukemia, > 100 µM; in the test on KM12 colon, > 100 µM; with NCI/ADR-RES ovarian, > 100 µM. Besides, the TGI with OVCAR-3 ovarian is > 100 µM; in the test with OVCAR-8 ovarian it was 57 µM; with SK-MEL-5 melanoma, > 100 µM.
For the compound `CC(C)N(C(=O)C12C3C4C5C3C1(C(=O)O)C5C42)C(C)C` (centres undefined), the TGI in the test on HOP-62 NSCLC, with HOP-92 NSCLC, in the test with K-562 leukemia, with KM12 colon, in the test on OVCAR-3 ovarian and in the test on OVCAR-8 ovarian was > 100 µM each time. Besides, the TGI in the test with SK-MEL-5 melanoma is > 100 µM.
Consider `O=CCCn1[nH]c(=O)ccc1=O`, for which the TGI in the test on HOP-92 NSCLC, in the test on K-562 leukemia, in the test with OVCAR-3 ovarian, in the test with OVCAR-8 ovarian, in the test with SK-MEL-5 melanoma and in the test with SR leukemia was > 100 µM throughout.
As for `NC1=NN(c2ccccc2)C(=O)C1C(=O)C(=O)Nc1ccccc1` (centres undefined), the TGI in the test on HOP-62 NSCLC, with HOP-92 NSCLC, in the test on K-562 leukemia, with KM12 colon, in the test with OVCAR-3 ovarian and in the test on OVCAR-8 ovarian was > 100 µM each time. Also, the TGI in the test on SK-MEL-5 melanoma was > 100 µM.
`CCCCCCCCCCCCCCCCc1c(C(=O)OC)nc(NC#N)[nH]c1=O`: the TGI in the test on HOP-62 NSCLC, in the test with HOP-92 NSCLC, in the test with K-562 leukemia, in the test on KM12 colon, with OVCAR-3 ovarian and in the test with OVCAR-8 ovarian was > 25 µM in each case.
As to `CN(C)CC1(C)CC/C(=C\c2ccc(Cl)cc2)C1=O` (centres undefined), the TGI is > 100 µM in the test on HOP-62 NSCLC; > 100 µM in the test on HOP-92 NSCLC; > 100 µM with K-562 leukemia; 80.3 µM in the test on KM12 colon; > 100 µM in the test with OVCAR-3 ovarian; > 100 µM in the test with OVCAR-8 ovarian. The TGI in the test on SK-MEL-5 melanoma is > 100 µM.

The values above are taken from PubChem BioAssay (NCI).
